Assay results reported in ChEMBL document CHEMBL1156615, “Nakijiquinones G-I, new sesquiterpenoid quinones from marine sponge” (Bioorg Med Chem, 2008).
In brackets after ≈: the same amount, converted by molar mass. Activity calls are given as the source filed them. No cut-off for these calls is given here.

Experiments:
Escherichia coli = assay: Antibacterial activity against Escherichia coli; format: functional
Aspergillus niger = assay: Antifungal activity against Aspergillus niger; format: functional
P388 = assay: Cytotoxicity against mouse P388 cells; format: functional, cell-based
Candida albicans = assay: Antifungal activity against Candida albicans; format: functional
[1] = molecular target: Receptor tyrosine-protein kinase erbB-2 (Homo sapiens) (UniProt P04626); assay: Inhibition of HER2
Staphylococcus aureus = assay: Antibacterial activity against Staphylococcus aureus; format: functional
Micrococcus luteus = assay: Antibacterial activity against Micrococcus luteus; format: functional
Cryptococcus neoformans = assay: Antifungal activity against Cryptococcus neoformans; format: functional
L1210 = assay: Cytotoxicity against mouse L1210 cells; format: functional, cell-based
Bacillus subtilis = assay: Antibacterial activity against Bacillus subtilis; format: functional
KB = assay: Cytotoxicity against human KB cells; format: functional, cell-based

Chain of Receptor tyrosine-protein kinase erbB-2 (Homo sapiens) (P04626 whole entry): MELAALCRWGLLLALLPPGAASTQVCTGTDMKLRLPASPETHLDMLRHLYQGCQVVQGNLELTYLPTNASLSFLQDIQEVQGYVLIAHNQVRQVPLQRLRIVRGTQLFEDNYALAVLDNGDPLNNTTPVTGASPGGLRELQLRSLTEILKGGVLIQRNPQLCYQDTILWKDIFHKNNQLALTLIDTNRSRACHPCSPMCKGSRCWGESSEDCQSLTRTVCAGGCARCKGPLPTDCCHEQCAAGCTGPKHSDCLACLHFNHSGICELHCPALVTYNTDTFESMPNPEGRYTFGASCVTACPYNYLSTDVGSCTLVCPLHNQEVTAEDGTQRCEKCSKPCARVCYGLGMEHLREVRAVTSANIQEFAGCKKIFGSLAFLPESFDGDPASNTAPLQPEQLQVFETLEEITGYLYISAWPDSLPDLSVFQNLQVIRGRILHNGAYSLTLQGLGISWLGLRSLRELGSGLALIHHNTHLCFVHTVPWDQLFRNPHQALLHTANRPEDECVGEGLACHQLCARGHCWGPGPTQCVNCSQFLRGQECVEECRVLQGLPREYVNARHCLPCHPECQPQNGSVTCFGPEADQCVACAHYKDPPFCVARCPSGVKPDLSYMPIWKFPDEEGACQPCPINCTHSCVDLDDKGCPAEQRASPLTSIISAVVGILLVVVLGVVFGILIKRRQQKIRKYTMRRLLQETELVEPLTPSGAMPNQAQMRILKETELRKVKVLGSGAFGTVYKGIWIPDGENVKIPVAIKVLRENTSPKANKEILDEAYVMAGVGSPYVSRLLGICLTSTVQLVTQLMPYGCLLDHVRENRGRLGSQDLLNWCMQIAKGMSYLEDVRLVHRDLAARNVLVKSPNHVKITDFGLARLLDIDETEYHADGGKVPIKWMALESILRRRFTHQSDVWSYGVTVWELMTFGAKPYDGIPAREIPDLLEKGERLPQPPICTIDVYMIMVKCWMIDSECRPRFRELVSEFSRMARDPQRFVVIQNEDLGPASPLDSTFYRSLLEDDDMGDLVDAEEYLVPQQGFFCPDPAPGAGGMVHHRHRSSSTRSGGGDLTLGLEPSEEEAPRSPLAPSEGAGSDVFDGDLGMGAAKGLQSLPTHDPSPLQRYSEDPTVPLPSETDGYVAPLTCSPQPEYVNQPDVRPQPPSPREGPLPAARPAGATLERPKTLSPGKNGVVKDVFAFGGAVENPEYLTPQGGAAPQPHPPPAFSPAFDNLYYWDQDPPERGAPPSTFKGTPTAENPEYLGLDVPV

SMILES	MIC (Escherichia coli)	MIC (Aspergillus niger)	IC50 (P388)	MIC (Candida albicans)	Activity [1]	MIC (Staphylococcus aureus)	MIC (Micrococcus luteus)	MIC (Cryptococcus neoformans)	IC50 (L1210)	MIC (Bacillus subtilis)	IC50 (KB)
CC1=CCC[C@H]2[C@](C)(CC3=C(O)C(=O)C=C(NCCC[S+](C)[O-])C3=O)[C@@H](C)CC[C@]12C (stereo partly drawn) [NAKIJIQUINONE I]	> 33.3 µg/mL	> 33.3 µg/mL	2.9 µg/mL (≈ 6.48 µM)	> 33.3 µg/mL	Active	> 33.3 µg/mL	33.3 µg/mL (≈ 74.4 µM)	> 33.3 µg/mL	2.4 µg/mL (≈ 5.36 µM)	> 33.3 µg/mL	5.6 µg/mL (≈ 12.5 µM)
CC1=CCC[C@H]2[C@](C)(CC3=C(O)C(=O)C=C(NCCc4cnc[nH]4)C3=O)[C@@H](C)CC[C@]12C [NAKIJIQUINONES G]	> 33.3 µg/mL	> 33.3 µg/mL	3.2 µg/mL (≈ 7.31 µM)	> 33.3 µg/mL	Active	33.3 µg/mL (≈ 76.1 µM)	33.3 µg/mL (≈ 76.1 µM)	> 33.3 µg/mL	2.9 µg/mL (≈ 6.63 µM)	33.3 µg/mL (≈ 76.1 µM)	4.8 µg/mL (≈ 11 µM)
CC1=CCC[C@H]2[C@](C)(CC3=C(O)C(=O)C=C(NCCCCNC(=N)N)C3=O)[C@@H](C)CC[C@]12C [NAKIJIQUINONES H]	> 33.3 µg/mL	16.7 µg/mL (≈ 36.6 µM)	2.4 µg/mL (≈ 5.26 µM)	8.35 µg/mL (≈ 18.3 µM)	Active	33.3 µg/mL (≈ 72.9 µM)	16.7 µg/mL (≈ 36.6 µM)	8.35 µg/mL (≈ 18.3 µM)	8.5 µg/mL (≈ 18.6 µM)	33.3 µg/mL (≈ 72.9 µM)	> 10 µg/mL
